Assays:
[1] = tested on: 50-kDa protein (eEF1A) in HEK293T cell lysates; test: Photo-affinity labeling of cell lysates with probe 5; type: binding; settings: competitor 10 min before 5 (2 μM) 20 min, UV, TAMRA-azide click
Experimental: Lysates were prepared from HEK293T cells by washing a monolayer of cells once with ice-cold PBS and briefly freezing at –80°C. Lysis buffer (25 mM HEPES-KOH pH 7.3, 100 mM KOAc, 5 mM MgOAc2, 1 mM TCEP, 1 mM PMSF, Roche EDTA-free complete protease inhibitor) was added, and cells were detached with a cell scraper. Crude lysates were clarified by centrifugation (15 min at 14,000 rpm), protein was quantified by Bradford assay, and the protein concentration was brought to 1.5 mg/mL with lysis buffer. Lysates were processed for photo-labeling as described below. For samples treated with RNase A, RNase A (Roche) was added to lysates (10 mg/mL final concentration) and incubated for 20 min at RT.
Photo-labeling experiments were preformed essentially as described ([MacKinnon and Taunton, 2009]; [MacKinnon et al., 2007]). Reactions (100 μL) were treated with DMSO (1 μL) or competitor in DMSO as 100X stocks and incubated for 10 min at RT, then treated with photo-probe 5 and incubated for 20 min. Reactions were transferred to 96-well plates and irradiated with long-wave UV light (λmax = 355 nm, 1000 W, 90 s). […] Gels were scanned for TAMRA fluorescence (532 nm excitation laser, 568 nm emission measured with LPG filter) on a Typhoon FLA 9000 scanner (GE Life Sciences).

[2] = tested on: translation initiation/elongation in HeLa cells; test: Ribosome/polysome profiles; type: cell-based; settings: 4 (5 μM) or cycloheximide (100 μg/mL) 15 min, then harringtonine 2 μg/mL 20 min
Experimental: HeLa cells grown to 80% confluence in 10-cm dishes were treated with DMSO or 4 (5 μM) for 20 min (Figure 2c, left panel), or were first treated with DMSO, 4 (5 μM), or cycloheximide (CHX, 100 μg/mL, Sigma, St. Louis, MO) for 15 min, followed by harringtonine (2 μg/mL, LKT Laboratories, St. Paul, MN) for 20 min. Following treatment, dishes were placed on ice, media aspirated, and cells were washed once with ice-cold PBS. Cells were scraped into 400 μL lysis buffer (20 mM Tris-HCl pH 7.5, 150 mM NaCl, 5 mM MgCl2, 1 mM DTT, 1% Triton X-100, 100 μg/mL CHX). Lysates were incubated for 10 min on ice, then passed through a 26-G needle 5 times. Samples were clarified by centrifugation at 14,000 rpm for 10 min at 4°C. Lysates were applied to 10–50% sucrose gradients (prepared in 20 mM Tris-HCl pH 7.5, 150 mM NaCl, 5 mM MgCl2, 1 mM DTT, 100 μg/mL CHX), followed by centrifugation at 35,000 rpm for 3 hr in a SW41 rotor at 4°C. Ribosome/polysome profiles were obtained by flowing the gradient top to bottom through an in-line spectrometer (254 nm, EM-1 Econo UV Monitor, BioRad, Hercules, CA).

[3] = tested on: HCT116 cells; test: HCT116 cell proliferation assay (alamarBlue, 72 hr); type: cell-based; settings: read-out: effect on HCT116 cell proliferation (no effect up to)
Experimental: HCT116 cells (ATCC, Manassas, VA) were maintained in McCoy’s 5A media (Gibco, Grand Island, NY) supplemented with 10% fetal bovine serum (Axenia Biologix, Dixon, CA), 100 units/mL penicillin, and 100 ug/mL streptomycin (Gibco). Mutant HCT116 cells were obtained from Dominic Hoepfner ([Krastel et al., 2015]). HEK293T cells (ATCC) and HeLa cells (ATCC) were maintained in DMEM (Gibco) supplemented with 10% fetal bovine serum, 100 units/mL penicillin, and 100 μg/mL streptomycin. All other cell lines were obtained from the Cancer Cell Line Encyclopedia collection and were maintained as described ([Barretina et al., 2012]). All cell lines were tested for mycoplasma (Lonza, CH) before use and were SNP-typed to verify that their identity matched that of the originally procured sample. […]
Growing cells were briefly trypsinized and repeatedly pipetted to produce a homogenous cell suspension. […] Fluorescence intensity was measured hourly to determine the linear range for each assay (Ex 545 nm, Em 590 nm, Spectra Max M5, Molecular Devices, Sunnyvale, CA). Proliferation curves were generated by first normalizing fluorescence intensity in each well to the DMSO-treated plate average. Normalized fluorescence intensity was plotted in GraphPad Prism (GraphPad, La Jolla, CA), and IC50 values calculated from nonlinear regression curves. […]

[4] = tested on: global protein synthesis in HCT116 cells; test: 35S-methionine incorporation; type: cell-based; settings: 5 hr compound then 35S-Met 1 hr, autoradiography / scintillation counting after TCA precipitation (mean ± SEM, n = 3)
Experimental: HCT116 cells at 80% confluence in 12-well plates were incubated with compounds for 5 hr at 37°C. The cell culture media was replaced with methionine- and cysteine-free DMEM with the appropriate amount of compound. ^35S-methionine (PerkinElmer EasyTag, 40 μCi/well) was added and cells were incubated for 1 hr. Subsequently, media was aspirated and cells were washed twice with ice-cold phosphate-buffered saline (PBS). For samples analyzed by SDS-PAGE/autoradiography (Figure 2a), cells were lysed in buffer (PBS, 0.5% Triton X-100, Roche complete protease inhibitor cocktail, Roche, Indianapolis, IN) and protein content was normalized by Bradford assay. Dried gels were exposed to a storage phosphor screen (Amersham Biosciences, UK) overnight and scanned with a Typhoon imager (GE Life Sciences, Pittsburgh, PA). Bulk incorporation measurements (Figure 2b) were made by treating cells with cold 10% trichloroacetic acid (TCA, 0.5 mL) for 10 min. Precipitated monolayers were washed with 10% TCA (2 × 0.5 mL) and solubilized in 0.2 N NaOH (0.5 mL). Aliquots (100 μL) were diluted into liquid scintillation fluid and radioactivity was quantified by scintillation counting.

[5] = tested on: adipogenesis; settings: ref Shimokawa et al., 2008b; cited from earlier work
Experimental: Ternatin (1, Figure 1a) is an N-methylated cyclic heptapeptide that inhibits adipogenesis at low nanomolar concentrations (EC50 20 nM) and becomes cytotoxic at ten-fold higher concentrations ([Shimokawa et al., 2008a]). […] Motivating the current study, ternatin's molecular target and mechanism of action were completely unknown. While searching for cyclic peptides that, like ternatin, incorporate a β-hydroxy leucine, we found a paten ...

## didemnin B
[1]
  competition of labeling of the 50-kDa band by probe 5: abolished

## C[C@@H]1C[C@@H]([C@H](O)CC2CC(=O)NC(=O)C2)C(=O)[C@@H](C)C1 [cycloheximide]
[2]
  harringtonine-induced polysome depletion: completely blocked

## CO[C@H]1\C=C/C=C\C=C/C[C@H](OC(=O)[C@@H](C)NC(=O)C2CCCCC2)[C@H](C)[C@@H](O)/C(C)=C\CCc2cc(O)cc(c2O)NC(=O)C1 [ansatrienin B]
[1]
  competition of labeling of the 50-kDa band by probe 5: abolished

## ternatin-4-Ala [Compound 2]
[3]
  IC50: > 10 µM
[4]
  effect on global protein synthesis (35S-methionine labeling): no effect
[5]
  biological activity (adipogenesis assay): abolished biological activity
